From PMC7778606, “Development of the phenylpyrazolo[3,4-d]pyrimidine-based, insulin-like growth factor receptor/Src/AXL-targeting small molecule kinase inhibitor” (Theranostics, 2021)
pIC50: −log10 of the molar value.

Assays:
A549 cells = experiment: MTT assay, viability of A549 cells; format: cell-based; conditions: Homo sapiens, 72 h; A549, MTT assay, 10 μM; read-out: % cells growth at 10 μM
Procedure: (§1) Cells were seeded into 96-well plates at a density of 1-2 × 10^3 cells/well and incubated for 24 h. Cells were treated with vehicle or various concentrations of test compounds for two (PC9 and PC9/ER cells) or three (other cells) days. Cells were further incubated with MTT solution (final concentration of 500 μg/mL) for 4 h at 37 °C. The formazan products were dissolved in dimethyl sulfoxide (DMSO), and the absorbance was measured at 570 nm. The data are presented as a percentage of the control group.

H460 cells = experiment: MTT assay, viability of H460 cells; format: cell-based; conditions: Homo sapiens, NCI-H460, 72 h, three days, read-out: IC50 against the viability
Procedure: as §1

H1299 cells = experiment: MTT assay, viability of H1299 cells; format: cell-based; conditions: Homo sapiens, NCI-H1299, 72 h, three days, read-out: IC50 against the viability
Procedure: as §1

AXL = experiment: Western blot, phosphorylation of AXL in H1944 and A549 cells; format: cell-based, human; conditions: 100 nM monotherapy, 1 day
Procedure: (§2) Before harvesting, the cells were stimulated with 10% FBS for 20 min. Total cell lysates were prepared with modified radioimmunoprecipitation assay lysis buffer (50 mM Tris-HCl [pH 7.4], 150 mM NaCl, 1 mM EDTA, 0.25% sodium deoxycholate, 1% Triton X-100, 100 mM NaF, 5 mM Na3VO4, 1 mM PMSF, 1 μg/mL aprotinin, 1 μg/mL leupeptin, and 1 μg/mL pepstatin). Equal amounts of protein (20 μg) were subjected to 8% SDS-PAGE and electrically transferred onto polyvinylidene difluoride membranes (Bio-Rad Laboratories, Hercules, CA, USA). Membranes were blocked with blocking buffer (3% BSA in Tris-buffered saline containing 0.1% Tween-20 [TBST]) for 1 h at room temperature. The membranes were incubated with primary antibodies diluted in 3% BSA in TBST (1:1,000) overnight at 4 °C, washed multiple times with TBST, and incubated with secondary antibodies diluted in 3% nonfat dry milk in TBST (1:5,000) for 1 h at room temperature. The membranes were washed multiple times with TBST and visualized using an enhanced chemiluminescence detection kit (Thermo Fisher Scientific). Densitometric analysis was performed using ImageJ software.

IGF-1R = experiment: Western blot, phosphorylation of IGF-1R in H1944 and A549 cells; format: cell-based, human; conditions: 2 μM monotherapy, 1 day
Procedure: as §2

`Oc1ccc(Nc2nccc(Nc3cnc4ccccc4c3)n2)cc1` [Compound 23a] gave an activity at 10 µM (A549 cells) of 69%.
For `Nc1nc(Nc2ccc3c(c2)CC[C@@H](N2CCCC2)CC3)nn1-c1cc2c(nn1)-c1ccccc1CCC2` [Bemcentinib, bemcentinib], the pIC50 (H460 cells) was 6.74, the pIC50 (H1299 cells) was 6.28 and the “phosphorylation of AXL” value (AXL) was “suppressed phosphorylation”.
In the case of `COc1cc(Nc2c(C#N)cnc3cc(OCCCN4CCN(C)CC4)c(OC)cc23)c(Cl)cc1Cl` [Bosutinib, bosutinib, reference compound], the activity at 10 µM (A549 cells) was 46%.
With `Cc1ccc(-c2n[nH]c3ncnc(N)c23)cc1` [Compound 1a] the activity at 10 µM (A549 cells) was 98%.
`Cc1nc(Nc2ncc(C(=O)Nc3c(C)cccc3Cl)s2)cc(N2CCN(CCO)CC2)n1` [Dasatinib, dasatinib] was tested, and the pIC50 (H460 cells) was 6.27 and the pIC50 (H1299 cells) was 7.70.
`C[C@]1(O)C[C@@H](c2nc(-c3ccc4ccc(-c5ccccc5)nc4c3)c3c(N)nccn32)C1` [Linsitinib] was tested, and the pIC50 (H460 cells) was 5.42, the pIC50 (H1299 cells) was 4.89 and the “phosphorylation of IGF-1R” value (IGF-1R) was “suppressed phosphorylation”.
